Data set [1] has as its system MRI-measured brain lesions. Conditions: MS patients, cited from earlier work.
For data set [2], the system named is brain lesions associated with progression of MS. Nature of the data set: Study of sixty patients with chronic multiple sclerosis: MRI brain lesions after one year of treatment. In kind it is in vivo. The note with it: seven days once per month for one year, MRI at month 12. The protocol: A study of sixty patients with chronic multiple sclerosis is undertaken. Each patient is first examined for normal hepatic, renal, and bone marrow functioning to establish baseline values. [table] Each of the patients in Groups 2-4 and 8-10 is treated with 2-CdA dissolved in sterile preservative-free isotonic saline, whereas patients in Groups 1 and 5-7 receive a placebo (saline). The 2-CdA is administered intravenously for a total of seven days, once per month for a total of one year. Each of the patients in Groups 5-10 is treated with natalizumab, whereas Groups 1-4 received placebo (saline). The natalizumab is administered intravenously for a total of seven days, once per month for a total of one year, with the treatment being on the same day as 2-CdA treatment. Patients are monitored to determine whether there is any progression or improvement of brain lesions associated with progression of MS. All patients have a baseline and MRI study (brain or spinal cord, according to localization of the lesions) at month 12.

As for `Nc1nc(Cl)nc2c1ncn2[C@H]1C[C@H](O)[C@@H](CO)O1` [2-CdA, 2-chloro-2′-deoxyadenosine], in data set [1] (Phase II study as printed (Rice et al., 2000)), the MRI-measured brain lesions entry is reported as “significantly reduced MRI-measured brain lesions”. Besides, the adverse effects result in data set [1] (observed with the highest doses) is given as “increased incidence of infections related to compromised immune function or myelosuppression”. Besides, the results for the “change in brain lesions (MRI)” value in data set [2] (Group 2: 2-CdA 0.25 mg/kg i.v.), in data set [2] (Group 3: 2-CdA 0.5 mg/kg i.v.) and in data set [2] (Group 4: 2-CdA 1 mg/kg i.v.) were “increase in brain lesions”, “increase in brain lesions” and “decrease in brain lesions”, respectively.
For the molecule “natalizumab: anti-alpha-4 integrin antibody used as the second agent in Example 1”, the “change in brain lesions (MRI)” value in data set [2] (Group 5: natalizumab 1 mg/kg i.v.) is given as “increase in brain lesions”; in data set [2] (Group 6: natalizumab 3 mg/kg i.v.) it was “decrease in brain lesions”; in data set [2] (Group 7: natalizumab 6 mg/kg i.v.), “decrease in brain lesions”.

Values taken from US20100129353A1, “COMBINATION AND TREATMENT FOR MULTIPLE SCLEROSIS” (Laboratoires Serono S.A., priority 2004, published 2010).
